From article PMC12287680, “Efficient Acyloxymethylation of Psilocin and Other Tryptamines Yielding ACOM Prodrugs for Psychedelic‐Assisted Therapy” (Archiv Der Pharmazie, 2025)
Structures can show the parent of a compound that is named as a salt. Marks after values point to notes of the source that are not given here.

Key:
[1] = Half-lives in PBS at 80°C (nonspecific hydrolysis); format: physicochemical; conditions: for half-life at 50 µM: pH 7.3, PBS, 80°C, 5·10^−5 M, footnote: no replicates; for stability in buffer compared with plasma: buffer at 80°C versus plasma at 37°C, same concentration
Method: As a measure of the drug release rate in the systemic blood circulation, we determined the half‐lives of 15, 16, and 23–26 in pooled human plasma. […] This illustrates that the drug release kinetics in human plasma are highly dependent upon the chosen acyl residue, which allows for tailoring the prodrug's pharmacokinetic profile to the therapeutic requirements. To assess the contribution of nonspecific hydrolysis to the observed kinetics, we incubated the prodrugs at the same concentration in the buffer used to dilute the plasma samples.
(§1) The kinetic studies were carried out by following the loss of substrate under the indicated conditions using HPLC‐UV. Pooled human plasma was obtained commercially (Biowest, France), while human saliva was freshly collected with the written informed consent of the saliva donors. In a typical run, the reaction was initiated by adding the prewarmed medium to a prewarmed aliquot of a 5 mM stock solution of the analyte in DMSO, resulting in a final concentration of 5·10^−5 M. A volume of 100 µL samples of the reaction mixture were taken at suitable intervals, and the reaction was either stopped by cooling to –20°C (PBS) or by protein precipitation using 2:1 (v/v) acetonitrile (saliva, plasma). Precipitates were removed by centrifugation and decantation prior to HPLC analysis. Pseudo‐first‐order rate constants for the observed degradation were determined from the slope of linear plots of ln(peak area) versus time. More detailed descriptions are provided in the Supporting Information.

[2] = Half-lives in human saliva at 37°C; format: in vitro ADME; conditions: fresh resting whole human saliva, mean of three measurements with fresh samples of three individuals, 5·10^−5 M, read-out: Half‐lives t 1/2 at 37°C in human Saliva
Method: Finally, we studied the stability of the compounds in human saliva. […] In line with the literature, the stability of a given compound in human saliva varied considerably between subjects (Figure 7).
as §1

[3] = parameters: method as in earlier work; conditions: rats, ref 10b, cited from earlier work
[4] = Half-lives in pooled human plasma at 37°C; format: in vitro ADME; conditions: for half-lives t1/2 in human plasma (v/v) at 37°C: 100% plasma, [prodrug]0 =50 µM
Method: As a measure of the drug release rate in the systemic blood circulation, we determined the half‐lives of 15, 16, and 23–26 in pooled human plasma. […] To assess the contribution of nonspecific hydrolysis to the observed kinetics, we incubated the prodrugs at the same concentration in the buffer used to dilute the plasma samples.
as §1
^a The release kinetics of the prodrugs were evaluated in vitro in analogy to the precedent literature.^[1] […] Pooled human blood plasma (Biowest, France) and sterile Dulbecco’s phosphate buffered saline (PBS) pH 7.3 (Sigma-Aldrich, Germany) were used for all experiments. In short, prewarmed (37°C) human plasma and prewarmed (37°C) prodrug (5 mM stock in DMSO) were gently mixed, which afforded a 50 µM solution of the prodrug in human plasma. Incubation was continued at 37°C, and 100 µL samples of the mixture were taken at appropriate time intervals. The samples were immediately quenched with acetonitrile (2:1), centrifuged, decanted, and analyzed via HPLC-UV. Half-lives were determined assuming first-order kinetics; specific values are the mean of triplicates ± standard deviation. For more details, please refer to the SI.

[5] = Passive membrane permeability across an artificial membrane; format: in vitro ADME; conditions: for Papp: PAMPA, pH 7.4, read-out: Passive membrane permeability Pe
Excerpt: As expected, all tested prodrugs have a high propensity for passive passage across an artificial membrane at pH 7.4 (≥ 8·10^−6 cm/s). […] The loss of the intramolecular hydrogen bond between the phenolic hydroxy group and the tertiary amino group upon O‐substitution appears to decrease the membrane permeability of the prodrugs in comparison to the parent drug. This effect is apparently not entirely compensated by the ACOM promoiety, which in itself is not completely apolar due to the acetal and ester oxygens. The intramolecular hydrogen bond may reduce the polarity of 4‐hydroxytryptamines by introducing a conformational restraint and thereby favoring conformations with a smaller polar surface area and a lower dipole moment and by decreasing hydrogen bonding to the aqueous solvent. In addition, the intramolecular hydrogen bond in 4‐hydroxytryptamines lowers the pK a of the amine and therefore shifts the protonation equilibrium toward the neutral species. The higher proportion of the uncharged species in 4‐hydroxytryptamines compared with their O‐substituted congeners further increases the difference in passive membrane permeability.

[6] = pH 7.4; cited from earlier work
[7] = cited from earlier work
[8] = in DMSO; cited from earlier work
[9] = 100% (undiluted) pooled human plasma, 37°C, 100% pooled human plasma, 5·10^−5 M
[10] = 10% pooled human plasma in PBS, pH 7.3, 37°C, 10% pooled human plasma diluted with PBS, 5·10^−5 M
[11] = diluted pooled human plasma, pH 7.3, even in diluted human plasma, read-out: half‐lives in human plasma

**Q.** Which half-life at 50 µM [1] does the source give for `CC(=O)Oc1ccccc1C(=O)O` [ASA, Acetylsalicylic acid, reference compound] here?
**A.** The half-life at 50 µM was 27.9 ± 0.3 min.

**Q.** What about the half-life at 50 µM [2] of the same molecule?
**A.** Its half-life at 50 µM is greater than 60 min.

**Q.** Which results are given for `CN(C)CCc1c[nH]c2cccc(OCOC(=O)C(C)(C)C)c12` [Compound 2]?
**A.** detected systemic psilocin level ([3]; peroral dosing): relatively low; prodrug behaviour upon peroral dosing [3]: acts as a psilocin prodrug

**Q.** What does the source list for `CCN(C)CCc1cn(C(=O)OCc2ccccc2)c2cccc(O)c12` [Compound 15]?
**A.** half-life at 50 µM [1]: 136 ± 4 min; half-life at 50 µM [4, 9]: > 5700 min; half-lives t1/2 in human plasma (v/v) at 37°C ([4]; 37°C): > 5700 (100%) min; drug release in undiluted human plasma during the observation period ([4]; 37°C): Neither the N‐carbamates 15 and 16 nor the sterically hindered pivaloyloxymethyl ethers 23 and 25 showed significant drug release

**Q.** Which half-life at 50 µM [1] does the source give for `CN(C)CCc1cn(C(=O)OCc2ccccc2)c2cccc(O)c12` [Compound 16, 1‐Benzyloxycarbonyl‐4‐Hydroxy‐N,N‐Dimethyltryptamine] here?
**A.** The half-life at 50 µM was 184 ± 5 min.

**Q.** And the half-life at 50 µM [4, 9]?
**A.** The half-life at 50 µM was greater than 5700 min.

**Q.** What about the “half-lives t1/2 in human plasma (v/v) at 37°C” value ([4]; 37°C) of the same molecule?
**A.** The value was > 5700 (100%) min.

**Q.** What about the “drug release in undiluted human plasma during the observation period” value ([4]; 37°C) of the same molecule?
**A.** Its value is “Neither the N‐carbamates 15 and 16 nor the sterically hindered pivaloyloxymethyl ethers 23 and 25 showed significant drug release”.

**Q.** What does the source list for `CCN(C)CCc1c[nH]c2cccc(OCOC(=O)C(C)(C)C)c12` [Compound 23]?
**A.** Papp [5]: 9.7 ± 0.6 ×10⁻⁶ cm/s; Passive membrane permeability R (%) (mass retention) ([5]; pH 7.4): 2%; half-life at 50 µM [1]: 534 ± 12 min; half-life at 50 µM [2]: < 20 min; half-life at 50 µM [4, 9]: > 240 min; half-lives t1/2 in human plasma (v/v) at 37°C ([4]; 37°C): > 240 (100%) min; drug release in undiluted human plasma during the observation period ([4]; 37°C): Neither the N‐carbamates 15 and 16 nor the sterically hindered pivaloyloxymethyl ethers 23 and 25 showed significant drug release

**Q.** With `CCCC(=O)OCOc1cccc2[nH]cc(CCN(C)CC)c12` [Compound 24] as the molecule, how does the Papp [5] read?
**A.** The Papp was 8 ± 0.3 ×10⁻⁶ cm/s.

**Q.** What about the “Passive membrane permeability R (%) (mass retention)” value (shortened to “Passive membrane permeability R (%)”) ([5]; pH 7.4) of the same molecule?
**A.** Its value is 6%.

**Q.** What about the “stability in buffer compared with plasma” value [1] of the same molecule?
**A.** Its value is “significantly more stable in buffer than in plasma”.

**Q.** And the half-life at 50 µM [1]?
**A.** Its half-life at 50 µM is 73.3 ± 1.2 min.

**Q.** And the half-life at 50 µM [2]?
**A.** The half-life at 50 µM was less than 10 min.

**Q.** And the half-life at 50 µM [4, 10]?
**A.** The half-life at 50 µM was 4.2 ± 0.1 min.

**Q.** What about the half-life at 50 µM [4, 11] of the same molecule?
**A.** Its half-life at 50 µM is less than 5 min.

**Q.** For `CN(C)CCc1c[nH]c2cccc(OCOC(=O)C(C)(C)C)c12` [Compound 25], which Papp [5] is on record?
**A.** Its Papp is 9.1 ± 0.5 ×10⁻⁶ cm/s.

**Q.** And the “Passive membrane permeability R (%)” value ([5]; pH 7.4)?
**A.** The value was 4%.

**Q.** And the half-life at 50 µM [1]?
**A.** The half-life at 50 µM was 458 ± 23 min.

**Q.** And the half-life at 50 µM [2]?
**A.** Its half-life at 50 µM is less than 20 min.

**Q.** And the half-life at 50 µM [4, 9]?
**A.** The half-life at 50 µM was greater than 240 min.

**Q.** And the “half-lives t1/2 in human plasma (v/v) at 37°C” value ([4]; 37°C)?
**A.** The value was > 240 (100%)^b min.

**Q.** What about the “chemical and plasma stability, in words” value ([4]; in vitro) of the same molecule?
**A.** The value was “high chemical and plasma stability”.

**Q.** What about the “drug release in undiluted human plasma during the observation period” value ([4]; 37°C) of the same molecule?
**A.** The value was “Neither the N‐carbamates 15 and 16 nor the sterically hindered pivaloyloxymethyl ethers 23 and 25 showed significant drug release”.

**Q.** For `CCCC(=O)OCOc1cccc2[nH]cc(CCN(C)C)c12` [Compound 26, 4‐n‐Butanoyloxymethyloxy‐N,N‐Dimethyltryptammonium Fumarate], which Papp [5] is on record?
**A.** The Papp was 8.1 ± 0.8 ×10⁻⁶ cm/s.

**Q.** What about the “Passive membrane permeability R (%)” value ([5]; pH 7.4) of the same molecule?
**A.** The value was 7 ^e %.

**Q.** And the “stability in buffer compared with plasma” value [1]?
**A.** The value was “significantly more stable in buffer than in plasma”.

**Q.** What about the half-life at 50 µM [1] of the same molecule?
**A.** The half-life at 50 µM was 58.6 ± 3.5 min.

**Q.** And the half-life at 50 µM [2]?
**A.** Its half-life at 50 µM is less than 10 min.

**Q.** And the half-life at 50 µM [4, 10]?
**A.** Its half-life at 50 µM is 3.5 ± 0.8 min.

**Q.** What about the half-life at 50 µM [4, 9] of the same molecule?
**A.** Its half-life at 50 µM is 0.48 ± 0.1 min.

**Q.** And the half-life at 50 µM [4, 11]?
**A.** Its half-life at 50 µM is less than 5 min.

**Q.** Which “Passive membrane permeability Pe” value ([5]; pH 7.4) does the source give for `CCN(C)CCc1c[nH]c2cccc(O)c12` [Compound 30, reference compound] here?
**A.** The value was 11 ± 1 10^−6cm/s.

**Q.** And the “Passive membrane permeability R (%)” value ([5]; pH 7.4)?
**A.** The value was 29%.

**Q.** And the “mass retention (R%), in words” value ([5]; pH 7.4)?
**A.** The value was “remarkably high”.

**Q.** And the “membrane permeability, ranking” value ([5]; pH 7.4, compared with the prodrugs)?
**A.** The value was “highest membrane permeability”.

**Q.** For `CN(C)CCc1c[nH]c2cccc(OP(=O)(O)O)c12` [psilocybin], which logD7.4 [6] is on record?
**A.** Its logD7.4 is −0.89.

**Q.** Which results are given for `CNS(=O)(=O)Cc1ccc2[nH]cc(CCN(C)C)c2c1` [sumatriptan]?
**A.** logP [7]: 0.93; sulfonamide pKa [8]: ~ 17.5; logD7.4 [6]: −1.3
